# Measured values as given in the NIST ThermoML archive (doi:10.1016/j.fluid.2007.04.023).
# Numbers after ± are expanded uncertainties.
# Details: Liquid, Vibrating tube method
smiles,measurement,setting,value
CCCCCCCCCCCC [dodecane],mass density,"313.09 K, 1022 kPa",735.79 ± 0.33 kg/m3
same,mass density,"313.09 K, 2023 kPa",736.6 ± 0.34 kg/m3
same,mass density,"313.09 K, 3017 kPa",737.36 ± 0.35 kg/m3
same,mass density,"313.09 K, 4026 kPa",738.14 ± 0.36 kg/m3
same,mass density,"313.09 K, 5023 kPa",738.89 ± 0.38 kg/m3
same,mass density,"313.09 K, 6032 kPa",739.66 ± 0.39 kg/m3
same,mass density,"313.09 K, 7011 kPa",740.38 ± 0.4 kg/m3
same,mass density,"313.09 K, 8009 kPa",741.15 ± 0.41 kg/m3
same,mass density,"313.09 K, 9026 kPa",741.91 ± 0.43 kg/m3
same,mass density,"313.09 K, 10008 kPa",742.66 ± 0.44 kg/m3
same,mass density,"313.09 K, 11022 kPa",743.39 ± 0.45 kg/m3
same,mass density,"313.09 K, 12012 kPa",744.09 ± 0.46 kg/m3
same,mass density,"313.09 K, 13019 kPa",744.82 ± 0.48 kg/m3
same,mass density,"313.09 K, 14017 kPa",745.55 ± 0.49 kg/m3
same,mass density,"313.09 K, 15025 kPa",746.22 ± 0.5 kg/m3
same,mass density,"313.09 K, 16025 kPa",746.91 ± 0.51 kg/m3
same,mass density,"313.09 K, 17015 kPa",747.58 ± 0.52 kg/m3
same,mass density,"313.09 K, 18022 kPa",748.26 ± 0.54 kg/m3
same,mass density,"313.09 K, 19025 kPa",748.93 ± 0.55 kg/m3
same,mass density,"313.09 K, 20013 kPa",749.59 ± 0.56 kg/m3
same,mass density,"313.09 K, 21015 kPa",750.23 ± 0.57 kg/m3
same,mass density,"313.09 K, 22011 kPa",750.9 ± 0.58 kg/m3
same,mass density,"313.09 K, 23021 kPa",751.53 ± 0.6 kg/m3
same,mass density,"313.09 K, 24015 kPa",752.21 ± 0.61 kg/m3
same,mass density,"313.09 K, 24354 kPa",752.42 ± 0.61 kg/m3
same,mass density,"322.97 K, 1025 kPa",728.33 ± 0.33 kg/m3
same,mass density,"322.97 K, 2028 kPa",729.17 ± 0.34 kg/m3
same,mass density,"322.97 K, 3026 kPa",729.97 ± 0.35 kg/m3
same,mass density,"322.97 K, 4034 kPa",730.78 ± 0.37 kg/m3
same,mass density,"322.97 K, 5021 kPa",731.59 ± 0.38 kg/m3
same,mass density,"322.97 K, 6017 kPa",732.37 ± 0.39 kg/m3
same,mass density,"322.97 K, 7017 kPa",733.17 ± 0.41 kg/m3
same,mass density,"322.97 K, 8041 kPa",733.99 ± 0.42 kg/m3
same,mass density,"322.97 K, 9015 kPa",734.73 ± 0.43 kg/m3
same,mass density,"322.97 K, 10016 kPa",735.5 ± 0.44 kg/m3
same,mass density,"322.97 K, 11019 kPa",736.28 ± 0.46 kg/m3
same,mass density,"322.97 K, 12011 kPa",737.01 ± 0.47 kg/m3
same,mass density,"322.97 K, 13028 kPa",737.78 ± 0.48 kg/m3
same,mass density,"322.97 K, 14041 kPa",738.53 ± 0.49 kg/m3
same,mass density,"322.97 K, 14994 kPa",739.22 ± 0.51 kg/m3
same,mass density,"322.97 K, 16027 kPa",739.96 ± 0.52 kg/m3
same,mass density,"322.97 K, 17001 kPa",740.64 ± 0.53 kg/m3
same,mass density,"322.97 K, 18015 kPa",741.35 ± 0.54 kg/m3
same,mass density,"322.97 K, 19032 kPa",742.07 ± 0.56 kg/m3
same,mass density,"322.97 K, 20004 kPa",742.74 ± 0.57 kg/m3
same,mass density,"322.97 K, 21009 kPa",743.43 ± 0.58 kg/m3
same,mass density,"322.97 K, 22023 kPa",744.14 ± 0.59 kg/m3
same,mass density,"322.97 K, 23009 kPa",744.8 ± 0.6 kg/m3
same,mass density,"322.97 K, 24013 kPa",745.5 ± 0.62 kg/m3
same,mass density,"322.97 K, 24507 kPa",745.83 ± 0.62 kg/m3
same,mass density,"332.8 K, 1023 kPa",721.08 ± 0.33 kg/m3
same,mass density,"332.8 K, 2019 kPa",721.96 ± 0.34 kg/m3
same,mass density,"332.8 K, 3022 kPa",722.81 ± 0.36 kg/m3
same,mass density,"332.8 K, 4030 kPa",723.69 ± 0.37 kg/m3
same,mass density,"332.8 K, 5026 kPa",724.53 ± 0.38 kg/m3
same,mass density,"332.8 K, 6035 kPa",725.36 ± 0.4 kg/m3
same,mass density,"332.8 K, 7014 kPa",726.16 ± 0.41 kg/m3
same,mass density,"332.8 K, 8025 kPa",727.03 ± 0.42 kg/m3
same,mass density,"332.8 K, 9017 kPa",727.84 ± 0.44 kg/m3
same,mass density,"332.8 K, 10020 kPa",728.67 ± 0.45 kg/m3
same,mass density,"332.8 K, 11023 kPa",729.46 ± 0.46 kg/m3
same,mass density,"332.8 K, 12022 kPa",730.26 ± 0.47 kg/m3
same,mass density,"332.8 K, 13004 kPa",731.04 ± 0.49 kg/m3
same,mass density,"332.8 K, 14008 kPa",731.81 ± 0.5 kg/m3
same,mass density,"332.8 K, 15018 kPa",732.57 ± 0.51 kg/m3
same,mass density,"332.8 K, 16023 kPa",733.35 ± 0.53 kg/m3
same,mass density,"332.8 K, 17014 kPa",734.08 ± 0.54 kg/m3
same,mass density,"332.8 K, 18006 kPa",734.82 ± 0.55 kg/m3
same,mass density,"332.8 K, 19024 kPa",735.59 ± 0.56 kg/m3
same,mass density,"332.8 K, 20023 kPa",736.32 ± 0.58 kg/m3
same,mass density,"332.8 K, 21009 kPa",737.01 ± 0.59 kg/m3
same,mass density,"332.8 K, 22009 kPa",737.73 ± 0.6 kg/m3
same,mass density,"332.8 K, 23018 kPa",738.45 ± 0.61 kg/m3
same,mass density,"332.8 K, 24018 kPa",739.17 ± 0.62 kg/m3
same,mass density,"332.8 K, 24665 kPa",739.63 ± 0.63 kg/m3
same,mass density,"342.69 K, 1019 kPa",713.8 ± 0.33 kg/m3
same,mass density,"342.69 K, 2025 kPa",714.75 ± 0.34 kg/m3
same,mass density,"342.69 K, 3025 kPa",715.67 ± 0.36 kg/m3
same,mass density,"342.69 K, 4014 kPa",716.58 ± 0.37 kg/m3
same,mass density,"342.69 K, 5015 kPa",717.47 ± 0.39 kg/m3
same,mass density,"342.69 K, 6017 kPa",718.36 ± 0.4 kg/m3
same,mass density,"342.69 K, 7021 kPa",719.25 ± 0.41 kg/m3
same,mass density,"342.69 K, 8007 kPa",720.13 ± 0.43 kg/m3
same,mass density,"342.69 K, 9019 kPa",721.03 ± 0.44 kg/m3
same,mass density,"342.69 K, 10018 kPa",721.86 ± 0.45 kg/m3
same,mass density,"342.69 K, 11016 kPa",722.71 ± 0.47 kg/m3
same,mass density,"342.69 K, 12013 kPa",723.56 ± 0.48 kg/m3
same,mass density,"342.69 K, 13021 kPa",724.39 ± 0.49 kg/m3
same,mass density,"342.69 K, 14020 kPa",725.21 ± 0.51 kg/m3
same,mass density,"342.69 K, 15030 kPa",726.04 ± 0.52 kg/m3
same,mass density,"342.69 K, 16024 kPa",726.83 ± 0.53 kg/m3
same,mass density,"342.69 K, 17011 kPa",727.58 ± 0.54 kg/m3
same,mass density,"342.69 K, 18025 kPa",728.36 ± 0.56 kg/m3
same,mass density,"342.69 K, 19023 kPa",729.15 ± 0.57 kg/m3
same,mass density,"342.69 K, 20013 kPa",729.88 ± 0.58 kg/m3
same,mass density,"342.69 K, 21006 kPa",730.67 ± 0.6 kg/m3
same,mass density,"342.69 K, 22021 kPa",731.41 ± 0.61 kg/m3
same,mass density,"342.69 K, 23014 kPa",732.15 ± 0.62 kg/m3
same,mass density,"342.69 K, 24013 kPa",732.89 ± 0.63 kg/m3
same,mass density,"342.69 K, 24725 kPa",733.44 ± 0.64 kg/m3
same,mass density,"352.51 K, 1021 kPa",706.54 ± 0.33 kg/m3
same,mass density,"352.51 K, 2027 kPa",707.55 ± 0.35 kg/m3
same,mass density,"352.51 K, 3013 kPa",708.48 ± 0.36 kg/m3
same,mass density,"352.51 K, 4019 kPa",709.46 ± 0.37 kg/m3
same,mass density,"352.51 K, 5027 kPa",710.45 ± 0.39 kg/m3
same,mass density,"352.51 K, 6014 kPa",711.35 ± 0.4 kg/m3
same,mass density,"352.51 K, 7020 kPa",712.33 ± 0.42 kg/m3
same,mass density,"352.51 K, 8000 kPa",713.23 ± 0.43 kg/m3
same,mass density,"352.51 K, 9024 kPa",714.18 ± 0.44 kg/m3
same,mass density,"352.51 K, 10009 kPa",715.07 ± 0.46 kg/m3
same,mass density,"352.51 K, 11022 kPa",715.96 ± 0.47 kg/m3
same,mass density,"352.51 K, 12012 kPa",716.84 ± 0.48 kg/m3
same,mass density,"352.51 K, 13026 kPa",717.71 ± 0.5 kg/m3
same,mass density,"352.51 K, 14017 kPa",718.6 ± 0.51 kg/m3
same,mass density,"352.51 K, 15021 kPa",719.45 ± 0.52 kg/m3
same,mass density,"352.51 K, 16022 kPa",720.3 ± 0.54 kg/m3
same,mass density,"352.51 K, 17012 kPa",721.08 ± 0.55 kg/m3
same,mass density,"352.51 K, 18027 kPa",721.95 ± 0.56 kg/m3
same,mass density,"352.51 K, 19013 kPa",722.74 ± 0.58 kg/m3
same,mass density,"352.51 K, 20028 kPa",723.53 ± 0.59 kg/m3
same,mass density,"352.51 K, 21021 kPa",724.33 ± 0.6 kg/m3
same,mass density,"352.51 K, 22023 kPa",725.14 ± 0.62 kg/m3
same,mass density,"352.51 K, 23008 kPa",725.88 ± 0.63 kg/m3
same,mass density,"352.51 K, 24020 kPa",726.65 ± 0.64 kg/m3
same,mass density,"352.51 K, 24813 kPa",727.31 ± 0.65 kg/m3
same,mass density,"362.29 K, 1015 kPa",699.21 ± 0.33 kg/m3
same,mass density,"362.29 K, 2020 kPa",700.31 ± 0.35 kg/m3
same,mass density,"362.29 K, 3015 kPa",701.33 ± 0.36 kg/m3
same,mass density,"362.29 K, 4012 kPa",702.34 ± 0.38 kg/m3
same,mass density,"362.29 K, 5029 kPa",703.4 ± 0.39 kg/m3
same,mass density,"362.29 K, 6009 kPa",704.36 ± 0.41 kg/m3
same,mass density,"362.29 K, 7029 kPa",705.38 ± 0.42 kg/m3
same,mass density,"362.29 K, 8013 kPa",706.3 ± 0.43 kg/m3
same,mass density,"362.29 K, 9012 kPa",707.31 ± 0.45 kg/m3
same,mass density,"362.29 K, 10038 kPa",708.31 ± 0.46 kg/m3
same,mass density,"362.29 K, 11027 kPa",709.22 ± 0.48 kg/m3
same,mass density,"362.29 K, 12009 kPa",710.09 ± 0.49 kg/m3
same,mass density,"362.29 K, 13007 kPa",711.04 ± 0.5 kg/m3
same,mass density,"362.29 K, 14015 kPa",711.96 ± 0.52 kg/m3
same,mass density,"362.29 K, 15008 kPa",712.81 ± 0.53 kg/m3
same,mass density,"362.29 K, 16034 kPa",713.71 ± 0.54 kg/m3
same,mass density,"362.29 K, 17030 kPa",714.59 ± 0.56 kg/m3
same,mass density,"362.29 K, 18011 kPa",715.43 ± 0.57 kg/m3
same,mass density,"362.29 K, 19021 kPa",716.29 ± 0.58 kg/m3
same,mass density,"362.29 K, 20007 kPa",717.15 ± 0.6 kg/m3
same,mass density,"362.29 K, 21017 kPa",717.94 ± 0.61 kg/m3
same,mass density,"362.29 K, 22032 kPa",718.77 ± 0.62 kg/m3
same,mass density,"362.29 K, 23002 kPa",719.6 ± 0.64 kg/m3
same,mass density,"362.29 K, 24005 kPa",720.38 ± 0.65 kg/m3
same,mass density,"362.29 K, 24809 kPa",721.05 ± 0.66 kg/m3
